According to patent publication US20250382344A1, “Soluble GLP1/GIP/NPY2 Receptor Triple Agonists” (Boehringer Ingelheim International GmH, priority 2024, published 2025):
Read-outs that look alike come from different tables or passages of the source.

What was measured:
[1] = Mouse PK after intravenous application; format: in vivo; settings: plasma, male NMRI mice, intravenous 30-60 nmol/kg, non-compartmental analysis
Experimental: Pharmacokinetic parameters of the peptides were determined after intravenous application to NMRI mice (Naval Medical Research Institute mice). Male NMRI mice were obtained from Janvier Laboratories (France) weighing 30 g to 40 g. Mice were housed in standard cages with a 12:12 hours light:dark cycle and standard food and water access ad libitum. Each test peptide was dissolved in 50 mM phosphate buffer (pH 7.4)/3.5% mannitol. Intravenous application of 30-60 nmol/kg was performed via the tail vein. Serial blood samples from conscious mice were collected from the saphenous vein in EDTA-containing vials at different time points up to 56 hours post-dosing. Subsequently, plasma was prepared by centrifugation for 5 minutes at approximately 5000 rpm and stored at −20° C. until quantification of the peptide plasma levels by liquid chromatography mass spectrometry (LC-MS). Individual plasma concentration-time profiles were analysed by a non-compartmental approach and the resulting pharmacokinetic parameters were calculated.

[2] = Solubility in 0.1 M phosphate buffer at pH 7; format: physicochemical; settings: 0.1 M phosphate buffer at pH 7, 10 mg/mL final peptide concentration, shaking 2 hours at room temperature, peptides as TFA-salts; measured sample pH 6.5-7.0
hNPY2R = molecular target: T1, hNPY2R (Homo sapiens, UniProt P49146); assay: hNPY2R CreLuc assay in 0.5% and 100% plasma (HEK-293 CRE-luciferase reporter cells); format: cell-based; settings: HEK-293 reporter cells
T1 construct: expressed in transfected cells; host or cells: HEK-293 CRE-luciferase reporter cells
T1 sequence (P49146 1-381): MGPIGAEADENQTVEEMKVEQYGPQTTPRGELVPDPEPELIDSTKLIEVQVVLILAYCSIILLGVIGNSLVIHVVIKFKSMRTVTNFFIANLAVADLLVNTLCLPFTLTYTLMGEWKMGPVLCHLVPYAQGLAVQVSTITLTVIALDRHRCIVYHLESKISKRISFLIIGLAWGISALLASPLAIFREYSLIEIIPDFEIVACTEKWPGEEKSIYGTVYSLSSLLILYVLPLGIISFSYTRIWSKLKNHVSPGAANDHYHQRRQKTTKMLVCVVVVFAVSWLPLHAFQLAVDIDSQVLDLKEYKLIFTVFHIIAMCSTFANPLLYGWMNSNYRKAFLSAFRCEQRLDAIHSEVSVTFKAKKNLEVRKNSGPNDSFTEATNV

hGIPR = molecular target: T2, hGIPR (Homo sapiens, UniProt P48546); assay: hGIPR CreLuc assay in 0.5% and 100% plasma (CHO CRE-luciferase reporter cells); format: cell-based; settings: 0.5% human plasma, read-out: hGIPR 0.5% hP
T2 construct: expressed in transfected cells; host or cells: CHO CRE-luciferase reporter cells
T2 sequence (P48546 22-466): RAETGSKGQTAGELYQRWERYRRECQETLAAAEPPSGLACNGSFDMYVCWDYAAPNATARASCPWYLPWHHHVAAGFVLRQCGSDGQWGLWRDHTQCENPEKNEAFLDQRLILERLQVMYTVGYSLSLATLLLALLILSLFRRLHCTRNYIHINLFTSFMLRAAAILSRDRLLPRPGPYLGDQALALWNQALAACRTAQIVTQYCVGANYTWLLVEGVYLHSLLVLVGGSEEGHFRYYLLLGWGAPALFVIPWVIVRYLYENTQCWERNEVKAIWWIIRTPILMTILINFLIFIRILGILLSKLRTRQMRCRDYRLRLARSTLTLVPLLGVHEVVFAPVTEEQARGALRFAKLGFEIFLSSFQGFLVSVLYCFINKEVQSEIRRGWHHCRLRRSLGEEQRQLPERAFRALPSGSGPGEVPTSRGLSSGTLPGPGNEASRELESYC

hGLP1R = molecular target: T3, hGLP1R (Homo sapiens, UniProt P43220); assay: hGLP1R CreLuc assay in 0.5% and 100% plasma (HEK-293 CRE-luciferase reporter cells); format: cell-based; settings: HEK-293 reporter cells
T3 construct: expressed in transfected cells; host or cells: HEK-293 CRE-luciferase reporter cells
T3 sequence (P43220 24-463): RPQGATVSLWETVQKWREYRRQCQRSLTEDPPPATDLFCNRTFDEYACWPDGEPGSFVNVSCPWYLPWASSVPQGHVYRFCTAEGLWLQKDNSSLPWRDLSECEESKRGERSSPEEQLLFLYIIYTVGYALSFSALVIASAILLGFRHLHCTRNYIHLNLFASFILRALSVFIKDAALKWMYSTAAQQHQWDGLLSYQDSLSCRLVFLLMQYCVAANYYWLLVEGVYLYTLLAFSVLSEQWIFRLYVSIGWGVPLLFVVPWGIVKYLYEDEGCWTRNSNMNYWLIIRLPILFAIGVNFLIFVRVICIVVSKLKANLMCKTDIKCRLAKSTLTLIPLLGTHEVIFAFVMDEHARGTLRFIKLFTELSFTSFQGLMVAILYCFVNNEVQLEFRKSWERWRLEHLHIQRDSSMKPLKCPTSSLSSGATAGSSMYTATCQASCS

[3] = 0.5% human plasma, read-out: hGLP1R 0.5% hP
[4] = 0.5% human plasma, read-out: hNPY2R 0.5% hP

With `CC[C@H](C)[C@H](NC(=O)[C@H](CC(C)C)NC(=O)[C@H](Cc1c[nH]cn1)NC(=O)[C@H](CCCNC(=N)N)NC(=O)[C@@H](NC(=O)[C@H](Cc1ccccc1)NC(=O)[C@H](C)NC(=O)C(C)(C)NC(=O)[C@H](CCC(=O)O)NC(=O)[C@H](C)NC(=O)[C@H](CCC(N)=O)NC(=O)[C@H](CCCCN)NC(=O)[C@H](CCC(=O)O)NC(=O)[C@H](CC(C)C)NC(=O)C(C)(C)NC(=O)[C@@H](NC(=O)[C@H](CO)NC(=O)[C@H](Cc1ccc(O)cc1)NC(=O)[C@H](CC(=O)O)NC(=O)[C@H](CO)NC(=O)[C@@H](NC(=O)[C@H](Cc1ccccc1)NC(=O)[C@@H](NC(=O)CNC(=O)[C@H](CCC(=O)O)NC(=O)C(C)(C)NC(=O)[C@@H](N)Cc1ccc(O)cc1)[C@@H](C)O)[C@@H](C)O)[C@@H](C)CC)C(C)C)C(=O)N[C@@H](CC(N)=O)C(=O)N[C@@H](CCCCNC(=O)[C@@H](N)CCCCNC(=O)CC[C@H](NC(=O)CC[C@H](NC(=O)CC[C@H](NC(=O)CC[C@H](NC(=O)CC[C@H](NC(=O)CC[C@H](NC(=O)CCCCCCCCCCCCCCCCC(=O)O)C(=O)O)C(=O)O)C(=O)O)C(=O)O)C(=O)O)C(=O)O)C(=O)NC(C)(C)C(=O)N[C@H](C(=O)N[C@@H](CCCNC(=N)N)C(=O)N[C@@H](CCC(N)=O)C(=O)N[C@@H](CCCNC(=N)N)C(=O)N[C@@H](Cc1ccc(O)cc1)C(N)=O)[C@@H](C)O` [Compound 10, Y-Aib-E-G-T-F-T-S-D-Y-S-I-Aib-L-E-K-Q-A-E-Aib-A-F-V-R-H-L-I-N-K(1,3)-Aib-T-R-Q-R-Y-NH2.C18DA-gGlu-gGlu-gGlu-gGlu-gGlu-gGlu-eLys(1,2)] the MRT [1] was 7.3 h, the solubility at 2 h [2] was 3800 µg/mL and the EC50 (hNPY2R; 100% human plasma, read-out: hNPY2R 100% hP) was 28.2 nM. For the same molecule, the EC50 (hGIPR) was 0.6 nM.
Molecule `CC[C@H](C)[C@H](NC(=O)[C@H](CC(C)C)NC(=O)[C@H](Cc1c[nH]cn1)NC(=O)[C@H](CCCNC(=N)N)NC(=O)[C@@H](NC(=O)[C@H](Cc1ccccc1)NC(=O)[C@H](CCC(=O)O)NC(=O)C(C)(C)NC(=O)[C@H](CCC(N)=O)NC(=O)[C@H](C)NC(=O)[C@H](CCC(N)=O)NC(=O)[C@H](CCCCN)NC(=O)[C@H](CCC(=O)O)NC(=O)[C@H](CC(C)C)NC(=O)C(C)(C)NC(=O)[C@@H](NC(=O)[C@H](CO)NC(=O)[C@H](Cc1ccc(O)cc1)NC(=O)[C@H](CC(=O)O)NC(=O)[C@H](CO)NC(=O)[C@@H](NC(=O)[C@H](Cc1ccccc1)NC(=O)[C@@H](NC(=O)CNC(=O)[C@H](CCC(=O)O)NC(=O)C(C)(C)NC(=O)[C@@H](N)Cc1ccc(O)cc1)[C@@H](C)O)[C@@H](C)O)[C@@H](C)CC)C(C)C)C(=O)N[C@@H](CC(N)=O)C(=O)N[C@@H](CCCCNC(=O)[C@@H](N)CCCCNC(=O)CC[C@H](NC(=O)CC[C@H](NC(=O)CC[C@H](NC(=O)CC[C@H](NC(=O)CC[C@H](NC(=O)CC[C@H](NC(=O)CCCCCCCCCCCCCCCCC(=O)O)C(=O)O)C(=O)O)C(=O)O)C(=O)O)C(=O)O)C(=O)O)C(=O)N[C@@H](CC(C)C)C(=O)N[C@H](C(=O)N[C@@H](CCCNC(=N)N)C(=O)N[C@@H](CCC(N)=O)C(=O)N[C@@H](CCCNC(=N)N)C(=O)N[C@@H](Cc1ccc(O)cc1)C(N)=O)[C@@H](C)O` [Compound 83, Y-Aib-E-G-T-F-T-S-D-Y-S-I-Aib-L-E-K-Q-A-Q-Aib-E-F-V-R-H-L-I-N-K(1,3)-L-T-R-Q-R-Y-NH2.C18DA-gGlu-gGlu-gGlu-gGlu-gGlu-gGlu-eLys(1,2)] has an MRT [1] of 7.8 h, a solubility at 2 h [2] of 3800 µg/mL and an EC50 (hGLP1R; [3]) of 0.6 nM. For the same molecule, the EC50 (hNPY2R; [4]) was 16.8 nM and the EC50 (hGIPR) was 0.4 nM.
In the case of `CC[C@H](C)[C@H](NC(=O)[C@H](CC(C)C)NC(=O)[C@H](Cc1c[nH]cn1)NC(=O)[C@H](CCCNC(=N)N)NC(=O)[C@@H](NC(=O)[C@H](Cc1ccccc1)NC(=O)[C@H](C)NC(=O)C(C)(C)NC(=O)[C@H](CCC(N)=O)NC(=O)[C@H](C)NC(=O)[C@H](CCC(N)=O)NC(=O)[C@H](CCCCN)NC(=O)[C@H](CCC(=O)O)NC(=O)[C@H](CC(C)C)NC(=O)C(C)(C)NC(=O)[C@@H](NC(=O)[C@H](CO)NC(=O)[C@H](Cc1ccc(O)cc1)NC(=O)[C@H](CC(=O)O)NC(=O)[C@H](CO)NC(=O)[C@@H](NC(=O)[C@H](Cc1ccccc1)NC(=O)[C@@H](NC(=O)CNC(=O)[C@H](CCC(=O)O)NC(=O)C(C)(C)NC(=O)[C@@H](N)Cc1ccc(O)cc1)[C@@H](C)O)[C@@H](C)O)[C@@H](C)CC)C(C)C)C(=O)N[C@@H](CC(N)=O)C(=O)N[C@@H](CCCCNC(=O)CC[C@H](NC(=O)CC[C@H](NC(=O)CC[C@H](NC(=O)CC[C@H](NC(=O)CC[C@H](NC(=O)CC[C@H](NC(=O)CCCCCCCCCCCCCCCCC(=O)O)C(=O)O)C(=O)O)C(=O)O)C(=O)O)C(=O)O)C(=O)O)C(=O)NC(C)(C)C(=O)N[C@H](C(=O)N[C@@H](CCCNC(=N)N)C(=O)N[C@@H](CCC(N)=O)C(=O)N[C@@H](CCCNC(=N)N)C(=O)N[C@@H](Cc1ccc(O)cc1)C(N)=O)[C@@H](C)O` [Compound 134, Y-Aib-E-G-T-F-T-S-D-Y-S-I-Aib-L-E-K-Q-A-Q-Aib-A-F-V-R-H-L-I-N-K(1,3)-Aib-T-R-Q-R-Y-NH2.C18DA-gGlu-gGlu-gGlu-gGlu-gGlu-gGlu(1,2)], the MRT [1] is reported as 5.3 h, the EC50 (hGLP1R; [3]) is reported as 1 nM and the EC50 (hGLP1R; 100% human plasma, read-out: hGLP1R 100% hP) is reported as 4 nM. It also gave an EC50 (hNPY2R; [4]) of 32.8 nM and an EC50 (hGIPR) of 0.4 nM.
